{"source": "paper PMC9838390", "about": "“Discovery and biosynthesis of karnamicins as angiotensin converting enzyme inhibitors” (Nature Communications, 2023)", "key": {"KnmB2": {"test_system": "KnmB2", "experiment": "NADPH oxidation of KnmB2 and variants (340 nm)", "format": "biochemical, L. rhizosphaerae NEAU-A2", "method": "(§1) Hydrogen peroxide formation assay and NADPH oxidation\n(§2) The hydrogen peroxide formed from KnmB1, KnmB2 and their variants were measured using the Hydrogen Peroxide Assay Kit (Beyotime Industrial Co. Ltd, Shanghai, China)4-5. 5–100 µL of enzyme reaction mixture was added to 100 µL of working reagent (S0038-1). The mixture was incubated for 30 min at 25 °C, at which time the absorbance at 560 nm was measured by NanoDrop 2000c (Fisher Scientific). The level of H2O2 was calculated according to a standard concentration curve from standard […]\nNADPH detection was carried out in the cuvette by NanoDrop 2000c (Fisher Scientific). NADPH signal at 340 nm was monitored in time using 6220 M–1 cm–1 as […]\n(§3) Spectral data for new compounds […]\nReaction conditions: 50 mM Tris-HCl buffer (pH 7.5),\n0.15 mM NADPH, and 2 μM KnmB1 or KnmB2. […]\nμM KnmB1 or variants, or 0.1 mM substrate 24/32/36. (h) NADPH oxidation of KnmB2 and variants. (i) NADPH oxidation of KnmB2 and variants in the presence 24 or 32. (j) H2O2 generation for KnmB2 and variants in the presence 24 or 32. Reaction conditions (h-j) for KnmB2 and their variants: 50 mM Tris-HCl buffer (pH 7.5), 0.15 mM NADPH, 2 μM KnmB2 or variants, or 0.1 mM substrate 24/32. Values are the means ± SD of n = 3 independent experiments, except for KnmB2+24 (T = 40 min), KnmB2-N219D+24 (T = 4 min), KnmB2-Y215F+24 (T= 1 min and 3 min) in i and j, and KnmB2+32 (T= 8 min) in j (n = 2). Source data are provided as a Source Data file. […]"}, "KnmB1": {"test_system": "KnmB1", "experiment": "Hydrogen peroxide formation assay of KnmB1 and variants", "format": "biochemical, L. rhizosphaerae NEAU-A2", "settings": "30 °C, average of 3", "method": "as §1\nas §2, with “Scientific).” for “Scientific). The level of H2O2 was calculated according to a standard concentration curve from standard”\nas §3\nSupplementary Figure 131. H2O2 generation and NADPH oxidation for KnmB2, KnmB1 and their variants. (a) Hydrogen peroxide formation of KnmB2 and variants. […]\n(b) Hydrogen peroxide formation of KnmB1 and variants. Reaction conditions: 100 µL system containing 50 mM Tris-HCl buffer (pH 7.5), 1 mM NADPH, 16 μM KnmB2, 17 μM KnmB1 or variants, 0.1 mM compound 24,1 mM SAM, and 2 […]\n(1 picture or pasted object on this page, not shown here) […]\nμM KnmF at 30 °C for 3h. (c) Hydrogen peroxide formation of KnmB1 and variants.\nReaction conditions: 100µL system containing 50 mM Tris-HCl buffer (pH 7.5), 0.3 mM NADPH, and 6 μM KnmB1 or variants, or 0.1 mM 24 at 30 °C for 30 min. […]\n2 μM KnmB2 or variants, or 0.1 mM substrate 24/32. […]\nSource data are provided as a Source Data file. […]"}}}
{"smiles": "CC(C)CCCCc1nc(-c2cc(O)cc(C(N)=O)n2)cs1", "note": "[Compound 24]", "values": [{"measurement": "NADPH oxidation, average value", "setting": "KnmB2; KnmB2+24, Time 0", "value": 0.0000, "unit": "µM"}, {"measurement": "NADPH oxidation, average value", "setting": "KnmB2; KnmB2+24, Time 1", "value": 5.8950, "unit": "µM"}, {"measurement": "NADPH oxidation, average value", "setting": "KnmB2; KnmB2+24, Time 2", "value": 11.0397, "unit": "µM"}, {"measurement": "NADPH oxidation, average value", "setting": "KnmB2; KnmB2+24, Time 3", "value": 17.6849, "unit": "µM"}, {"measurement": "NADPH oxidation, average value", "setting": "KnmB2; KnmB2+24, Time 4", "value": 25.7235, "unit": "µM"}, {"measurement": "NADPH oxidation, average value", "setting": "KnmB2; KnmB2+24, Time 5", "value": 35.2090, "unit": "µM"}, {"measurement": "NADPH oxidation, average value", "setting": "KnmB2; KnmB2+24, Time 8", "value": 55.4662, "unit": "µM"}, {"measurement": "NADPH oxidation, average value", "setting": "KnmB2; KnmB2+24, Time 10", "value": 66.9346, "unit": "µM"}, {"measurement": "NADPH oxidation, average value", "setting": "KnmB2; KnmB2+24, Time 15", "value": 84.8339, "unit": "µM"}, {"measurement": "NADPH oxidation, average value", "setting": "KnmB2; KnmB2+24, Time 20", "value": 95.5520, "unit": "µM"}, {"measurement": "NADPH oxidation, average value", "setting": "KnmB2; KnmB2+24, Time 30", "value": 104.1265, "unit": "µM"}, {"measurement": "NADPH oxidation, average value", "setting": "KnmB2; KnmB2+24, Time 40", "value": 102.4920, "unit": "µM"}, {"measurement": "NADPH oxidation, average value", "setting": "KnmB2; KnmB2+24, Time 60", "value": 111.3076, "unit": "µM"}, {"measurement": "NADPH oxidation, average value", "setting": "KnmB2; KnmB2-F205A+24, Time 0", "value": 0.0000, "unit": "µM"}, {"measurement": "NADPH oxidation, average value", "setting": "KnmB2; KnmB2-F205A+24, Time 1", "value": 0.7985, "unit": "µM"}, {"measurement": "NADPH oxidation, average value", "setting": "KnmB2; KnmB2-F205A+24, Time 2", "value": 1.4255, "unit": "µM"}, {"measurement": "NADPH oxidation, average value", "setting": "KnmB2; KnmB2-F205A+24, Time 3", "value": 1.3880, "unit": "µM"}, {"measurement": "NADPH oxidation, average value", "setting": "KnmB2; KnmB2-F205A+24, Time 4", "value": 1.7631, "unit": "µM"}, {"measurement": "NADPH oxidation, average value", "setting": "KnmB2; KnmB2-F205A+24, Time 5", "value": 1.7310, "unit": "µM"}, {"measurement": "NADPH oxidation, average value", "setting": "KnmB2; KnmB2-F205A+24, Time 8", "value": 1.8274, "unit": "µM"}, {"measurement": "NADPH oxidation, average value", "setting": "KnmB2; KnmB2-F205A+24, Time 10", "value": 2.3312, "unit": "µM"}, {"measurement": "NADPH oxidation, average value", "setting": "KnmB2; KnmB2-F205A+24, Time 15", "value": 2.6313, "unit": "µM"}, {"measurement": "NADPH oxidation, average value", "setting": "KnmB2; KnmB2-F205A+24, Time 20", "value": 3.4566, "unit": "µM"}, {"measurement": "NADPH oxidation, average value", "setting": "KnmB2; KnmB2-F205A+24, Time 30", "value": 5.0911, "unit": "µM"}, {"measurement": "NADPH oxidation, average value", "setting": "KnmB2; KnmB2-F205A+24, Time 40", "value": 7.7546, "unit": "µM"}, {"measurement": "NADPH oxidation, average value", "setting": "KnmB2; KnmB2-F205A+24, Time 60", "value": 10.8575, "unit": "µM"}, {"measurement": "NADPH oxidation, average value", "setting": "KnmB2; KnmB2-N291D+24, Time 0", "value": 0.0000, "unit": "µM"}, {"measurement": "NADPH oxidation, average value", "setting": "KnmB2; KnmB2-N291D+24, Time 2", "value": 1.4470, "unit": "µM"}, {"measurement": "NADPH oxidation, average value", "setting": "KnmB2; KnmB2-N291D+24, Time 4", "value": 2.7331, "unit": "µM"}, {"measurement": "NADPH oxidation, average value", "setting": "KnmB2; KnmB2-N291D+24, Time 5", "value": 4.2337, "unit": "µM"}, {"measurement": "NADPH oxidation, average value", "setting": "KnmB2; KnmB2-N291D+24, Time 8", "value": 6.8060, "unit": "µM"}, {"measurement": "NADPH oxidation, average value", "setting": "KnmB2; KnmB2-N291D+24, Time 10", "value": 8.5745, "unit": "µM"}, {"measurement": "NADPH oxidation, average value", "setting": "KnmB2; KnmB2-N291D+24, Time 15", "value": 11.8971, "unit": "µM"}, {"measurement": "NADPH oxidation, average value", "setting": "KnmB2; KnmB2-N291D+24, Time 20", "value": 16.3451, "unit": "µM"}, {"measurement": "NADPH oxidation, average value", "setting": "KnmB2; KnmB2-N291D+24, Time 30", "value": 24.5445, "unit": "µM"}, {"measurement": "NADPH oxidation, average value", "setting": "KnmB2; KnmB2-N291D+24, Time 40", "value": 34.3516, "unit": "µM"}, {"measurement": "NADPH oxidation, average value", "setting": "KnmB2; KnmB2-N291D+24, Time 60", "value": 49.1426, "unit": "µM"}, {"measurement": "NADPH oxidation, average value", "setting": "KnmB2; KnmB2-Y215A+24, Time 0", "value": 0.0000, "unit": "µM"}, {"measurement": "NADPH oxidation, average value", "setting": "KnmB2; KnmB2-Y215A+24, Time 1", "value": 0.2519, "unit": "µM"}, {"measurement": "NADPH oxidation, average value", "setting": "KnmB2; KnmB2-Y215A+24, Time 2", "value": 0.5145, "unit": "µM"}, {"measurement": "NADPH oxidation, average value", "setting": "KnmB2; KnmB2-Y215A+24, Time 3", "value": 0.7020, "unit": "µM"}, {"measurement": "NADPH oxidation, average value", "setting": "KnmB2; KnmB2-Y215A+24, Time 4", "value": 0.6913, "unit": "µM"}, {"measurement": "NADPH oxidation, average value", "setting": "KnmB2; KnmB2-Y215A+24, Time 5", "value": 0.7449, "unit": "µM"}, {"measurement": "NADPH oxidation, average value", "setting": "KnmB2; KnmB2-Y215A+24, Time 8", "value": 0.9968, "unit": "µM"}, {"measurement": "NADPH oxidation, average value", "setting": "KnmB2; KnmB2-Y215A+24, Time 10", "value": 1.3237, "unit": "µM"}, {"measurement": "NADPH oxidation, average value", "setting": "KnmB2; KnmB2-Y215A+24, Time 15", "value": 2.0043, "unit": "µM"}, {"measurement": "NADPH oxidation, average value", "setting": "KnmB2; KnmB2-Y215A+24, Time 20", "value": 2.2883, "unit": "µM"}, {"measurement": "NADPH oxidation, average value", "setting": "KnmB2; KnmB2-Y215A+24, Time 30", "value": 3.8532, "unit": "µM"}, {"measurement": "NADPH oxidation, average value", "setting": "KnmB2; KnmB2-Y215A+24, Time 40", "value": 5.5520, "unit": "µM"}, {"measurement": "NADPH oxidation, average value", "setting": "KnmB2; KnmB2-Y215A+24, Time 60", "value": 9.2926, "unit": "µM"}, {"measurement": "NADPH oxidation, average value", "setting": "KnmB2; KnmB2-Y215F+24, Time 0", "value": 0.0000, "unit": "µM"}, {"measurement": "NADPH oxidation, average value", "setting": "KnmB2; KnmB2-Y215F+24, Time 1", "value": 2.5724, "unit": "µM"}, {"measurement": "NADPH oxidation, average value", "setting": "KnmB2; KnmB2-Y215F+24, Time 2", "value": 4.4480, "unit": "µM"}, {"measurement": "NADPH oxidation, average value", "setting": "KnmB2; KnmB2-Y215F+24, Time 3", "value": 6.5113, "unit": "µM"}, {"measurement": "NADPH oxidation, average value", "setting": "KnmB2; KnmB2-Y215F+24, Time 4", "value": 8.5745, "unit": "µM"}, {"measurement": "NADPH oxidation, average value", "setting": "KnmB2; KnmB2-Y215F+24, Time 5", "value": 12.2187, "unit": "µM"}, {"measurement": "NADPH oxidation, average value", "setting": "KnmB2; KnmB2-Y215F+24, Time 8", "value": 19.5606, "unit": "µM"}, {"measurement": "NADPH oxidation, average value", "setting": "KnmB2; KnmB2-Y215F+24, Time 10", "value": 24.7588, "unit": "µM"}, {"measurement": "NADPH oxidation, average value", "setting": "KnmB2; KnmB2-Y215F+24, Time 15", "value": 37.2990, "unit": "µM"}, {"measurement": "NADPH oxidation, average value", "setting": "KnmB2; KnmB2-Y215F+24, Time 20", "value": 48.1779, "unit": "µM"}, {"measurement": "NADPH oxidation, average value", "setting": "KnmB2; KnmB2-Y215F+24, Time 30", "value": 66.6667, "unit": "µM"}, {"measurement": "NADPH oxidation, average value", "setting": "KnmB2; KnmB2-Y215F+24, Time 40", "value": 81.1361, "unit": "µM"}, {"measurement": "NADPH oxidation, average value", "setting": "KnmB2; KnmB2-Y215F+24, Time 60", "value": 100.0536, "unit": "µM"}, {"measurement": "coupling efficiency", "setting": "KnmB2; hydroxylatable effector for KnmB2, from NADPH consumption and H2O2 formation in time", "value": "0–45%"}, {"measurement": "hydrogen peroxide formation of KnmB1 (absorbance UV λ=560 nm), average value", "setting": "KnmB1; Fig. S131b, 1 mM NADPH, 17 μM KnmB1, 0.1 mM compound, 3 h", "value": 0.5214}, {"measurement": "hydrogen peroxide formation of KnmB1 (absorbance UV λ=560 nm), average value", "setting": "KnmB1; Fig. S131c, 0.3 mM NADPH, 6 μM KnmB1, 0.1 mM compound, 30 min", "value": 1.0442}]}
